Earlier results on one molecule are cited in patent publication US20240158423A1, “TWO-COMPARTMENT BIPOLAR MEMBRANE ELECTRODIALYSIS OF SALTS OF AMINO ACIDS” (MONSANTO TECHNOLOGY LLC, priority 2021, published 2024).

Read-outs that look alike come from different tables or passages of the source.

Consider `O=C(O)CNCC(=O)O` [IDA, iminodiacetic acid], for which the solubility entry (in water at a temperature of 10° C.) is “less than 4 g IDA/100 g H2O” and the solubility result (in water at a temperature of 60° C.) was “approximately 14 g IDA/100 g H2O”.
